Results from patent US8487130B2, “Menthylcarboxamides and their use as cooling agents” (International Flavors & Fragrances Inc., priority 2009, dated 2013).
“Also recorded” adds a separate entry of the source.

Assays:
Format in all cases: in vivo
[1] = system: descriptive analysis panel; assay: Chewing gum cooling evaluation by descriptive analysis panel; details: gum blended with Structure I
Method: The following gum base formulation was prepared: [table] Structure I by itself and in separate mixtures with monomenthyl glutarate, 2-isopropyl-N,2,3-trimethylbutyramid, N-ethyl-p-menthanecarboxamide and menthyl acetoacetate at levels detailed in the Tables below was blended with the gum base in a Sigma mixer. The resultant chewing gum blend was then manufactured into strips 1 inch in width and 0.1 inches in thickness. These strips were cut into lengths of 3 inches each. […] Samples were profiled by a highly trained descriptive analysis panel. The ballot consisted of the following terms: Total impact, total mint, cooling-mouth closed, cooling-breath in, nasal cooling—breath in, throat irritation, bitterness, tongue irritation, numbing. Each attribute was rated at discrete time points including 5 secs, 30 secs, 90 secs, 3 mins, 5 mins, 7 mins, 10 mins, 15 mins, 20 mins, and 30 mins. The following table details the panelist's results for the combination of Structure I with monomenthyl glutarate, 2-isopropyl-N,2,3-trimethylbutyramid, N-ethyl-p-menthanecarboxamide and menthyl acetoacetate at 3 minutes, 8 minutes, 20 minutes and 30 minute, 40 minute and 50 minute intervals. The amounts are listed in weight percent.

[2] = Flavor evaluation, tasted in water; details: for flavor evaluation: cooling: 40 ppm in water
[3] = Flavor evaluation, tasted in water; details: 40 ppm in water
Source text: Flavor Evaluation of Structure I
Flavor evaluation of the (2S,5R)—N-[4-(4-Amino-4-oxobutyl)phenyl]-5-methyl-2-(propan-2-yl)cyclohexanecarboxamide in water at concentration 40 ppm: […]

For CC(C)[C@@H]1CC[C@@H](C)CC1C(=O)Nc1ccc(CC(N)=O)cc1 (stereo partly drawn) [Structure I, (2S,5R)—N-[4-(2-Amino-2-oxoethyl)phenyl]-5-methyl-2-(propan-2-yl)cyclohexanecarboxamide], the panelist comment ([1]; Panelist 1, 11:05 (start 11:04)) was “Bitter, Brown, Sweet, slightly Vanilla”, the panelist comment ([1]; Panelist 1, 11:06 (start 11:04)) was “Start to notice cooling” and the panelist comment ([1]; Panelist 1, 11:08 (start 11:04)) was “Moderate cooling”. For the same compound, the panelist comment ([1]; Panelist 1, 11:11 (start 11:04)) was “Moderate cooling in mouth and now back of the throat; nice on breath in; also recorded: Continued long lasting cooling”, the panelist comment ([1]; Panelist 1, 11:15 (start 11:04)) was “Slight cooling moving to the front of the mouth” and the panelist comment ([1]; Panelist 1, 11:18 (start 11:04)) was “Stable cooling all over, nice level”. For the same compound, the panelist comment ([1]; Panelist 1, 11:22 (start 11:04)) was “Long lasting”, the panelist comment ([1]; Panelist 2, 11:04 (start)) was “Very sweet, brown” and the panelist comment ([1]; Panelist 2, 11:07 (start 11:04)) was “Started to notice cooling on breath and tip of the tongue”. For the same compound, the panelist comment ([1]; Panelist 2, 11:09 (start 11:04)) was “Started to notice on back of throat, continued to build in the rest of the mouth”, the panelist comment ([1]; Panelist 2, 11:11 (start 11:04)) was “Cooling consistent throughout mouth, slight irritation on the back of the throat” and the panelist comment ([1]; Panelist 2, 11:15 (start 11:04)) was “Cooling level the same”. The panelist comment ([1]; Panelist 2, 11:24 (start 11:04)) was “Still getting a good amount of cooling”, the panelist comment ([1]; Panelist 2, 12:07 (start 11:04)) was “Cooling is gone” and the panelist comment ([1]; Panelist 3, 11:07 (start 11:04)) was “Cooling on the back of the throat”. The panelist comment ([1]; Panelist 3, 11:14 (start 11:04)) was “Concentrated on the back of the throat; irritating”, the panelist comment ([1]; Panelist 3, 11:22 (start 11:04)) was “Full cooling after 20 min” and the panelist comment ([1]; Panelist 4, 11:07 (start 11:04)) was “Cooling perception begins (mild)”. The panelist comment ([1]; Panelist 4, 11:09 (start 11:04)) was “Cooling pleasant, builds to moderate cooling on the front/tip of tongue”, the panelist comment ([1]; Panelist 4, 11:11 (start 11:04)) was “Intensity max reached” and the panelist comment ([1]; Panelist 4, 11:14 (start 11:04)) was “Cooling plateau, maintained. Delocalized all over mouth”. The panelist comment ([1]; Panelist 4, 11:19 (start 11:04)) was “Remains intense”, the panelist comment ([1]; Panelist 4, 11:20 (start 11:04)) was “Moves to throat (mild) very intense on tip of the tongue and center” and the panelist comment ([1]; Panelist 4, 11:24 (start 11:04)) was “Still cooling”. The panelist comment ([1]; Panelist 4, 12:00 (start 11:04)) was “Cooling remains”, the panelist comment ([1]; Panelist 4, 12:15 (start 11:04)) was “Cooling diminished significantly” and the duration of cooling ([2]; 1 ppm in water) was 30 min. For the same compound, the “flavor properties (cooling) when tasted in water” value ([2]; 1 ppm in water) was “clean with slight cooling up front that builds with time to moderate level”, the “flavor properties (cooling) when tasted in water” value ([2]; 10 ppm in water) was “moderate throat and mouth cooling that lingers with some bitter notes in background” and the duration of cooling ([2]; 10 ppm in water, with breath in) was 30 min.

For CC(C)[C@@H]1CC[C@@H](C)CC1C(=O)Nc1ccc(CCCC(N)=O)cc1 (stereo partly drawn) [(2S,5R)—N-[4-(4-Amino-4-oxobutyl)phenyl]-5-methyl-2-(propan-2-yl)cyclohexanecarboxamide], the “flavor evaluation: cooling” value ([2]; 30 minutes) was “localized on tip”, the “flavor evaluation: cooling” value ([2]; ~3.5 minutes) was “beginning to build” and the “flavor evaluation: onset and character of cooling” value [3] was “Late onset of cooling after expectorating, peppery on tip of tongue and back of throat, cooling on tip, irritating on back of throat—sore throat, cooling building on tip of tongue, peppery in esophagus”. For the same compound, the “flavor evaluation: taste” value [3] was “Umami! Ribotide-like. Umami upfront”, the “flavor evaluation: cooling” value ([3]; after 20 minutes) was “Still going strong after 20 minutes and cooling on gums” and the “flavor evaluation: cooling” value ([3]; ~40 sec) was “cooling just beginning, throat irritation, slight numbing on tip of tongue, mouth-watering, mouth coating—all over”. The “flavor evaluation: cooling” value ([3]; ~7 minutes) was “continuing to build”.
